In US7153875B2, “Heterocyclic derivatives for the treatment of cancer and other proliferative diseases” (Incyte San Diego, priority 2001, dated 2006) one finds melting point data, which are given here for 31 compounds.

Each structure is given as a SMILES string.

In turn, `O=C1NC(=O)C(c2ccc3cc(-c4ccc(O)c(C56CC7CC(CC(C7)C5)C6)c4)ccc3c2)S1` (stereo not shown) [Compound 24, 5-[6-(3-[1-Adamantyl]-4-hydroxyphenyl)-naphthalen-2-yl]-2,4-thiazolidinedione] registered a melting point of 312 to 314.5 °C.

As to `COCOc1ccc(-c2ccc(/C=C3\SC(=O)NC3=O)cc2)cc1C12CC3CC(CC(C3)C1)C2` [Compound 10, 4-[3-(1-Adamantyl)-4-methoxymethoxyphenyl]-benzylidene-2,4-thiazolidinedione], the melting point was 253 to 254.5 °C.

Turning to `O=C1NC(=O)/C(=C/c2ccc(-c3cc(F)c(O)c(C45CC6CC(CC(C6)C4)C5)c3)nc2)S1` [Compound 37], the melting point is 307 to 310 °C.

The compound `CCOc1cc(/C=C2\SC(=O)NC2=O)ccc1-c1ccc(O)c(C23CC4CC(CC(C4)C2)C3)c1` [Compound 49, 4-[3-(1-Adamantyl)-4-hydroxy-phenyl]-5-ethoxybenzylidene-2,4-thiazolidinedione] displayed a melting point of 298 to 302 °C.

`O=C1NC(=O)/C(=C/c2ccc(-c3ccc(O)c(C45CC6CC(CC(C6)C4)C5)c3)cc2)S1` [Compound 7, 4-[3-(1-Adamantyl)-4-hydroxyphenyl]benzylidene-2,4-thiazolidinedione] registered a melting point of 307 to 308.5 °C.

Turning to `CC(C)(C)c1cc(-c2ccc(/C=C3\SC(=O)NC3=O)cn2)ccc1O` [Compound 40], the melting point was 303 to 304 °C.

For `Nc1cc(/C=C2\SC(=O)NC2=O)ccc1-c1ccc(O)c(C23CC4CC(CC(C4)C2)C3)c1` [Compound 51, 4-[3-(1-Adamantyl)-4-hydroxy-phenyl]-5-aminobenzylidene-2,4-thiazolidinedione], the melting point lay within 167 to 169 °C.

`O=C1NC(=O)/C(=C/c2ccc(-c3ccc(O)c(C45CC6CC(CC(C6)C4)C5)c3)c(Cl)c2)S1` [Compound 48, 4-[3-(1-Adamantyl)-4-hydroxy-phenyl]-5-chlorobenzylidene-2,4thiazolidinedione]: the melting point is > 280 °C (dec.).

In turn, `O=C1NC(=O)/C(=C/c2ccc(-c3ccc(O)c(C45CC6CC(CC(C6)C4)C5)c3)c([N+](=O)[O-])c2)S1` [Compound 50, 4-[3-(1-Adamantyl)-4-hydroxy-phenyl]-5-nitrobenzylidene-2,4-thiazolidinedione] returned a melting point of 262 to 264 °C.

Take `COc1ccc(-c2ccc(/C=C3\SC(=S)NC3=O)cc2)cc1C12CC3CC(CC(C3)C1)C2` [Compound 6, 4-[3-(1-Adamantyl)-4-methoxyphenyl]-benzylidene-2-thioxo-4-thiazolidinedione]: the melting point fell in the range of 313 to 317 °C.

`CC(C)(C)c1cc(-c2ccc(/C=C3\SC(=O)NC3=O)cc2)ccc1O` [Compound 39, 4-[3-(t-Butyl)-4-hydroxy-phenyl]benzylidene-2,4-thiazolidinedione] had a melting point of 256 to 257 °C.

As for `CC(c1ccc(-c2ccc(O)c(C34CC5CC(CC(C5)C3)C4)c2)nc1)C1SC(=O)NC1=O` (stereo not shown) [Compound 52, {1-[6-(3-Adamantan-1-yl-4-hydroxy-phenyl)-pyridin-3-yl]-ethyl}-thiazolidine-2,4-dione], the melting point was in the range of 169 to 171 °C.

On to `O=C1NC(=O)/C(=C/c2ccc(-c3cc(Cl)c(O)c(C45CC6CC(CC(C6)C4)C5)c3)cc2)S1` [Compound 38, 4-[3-(1-Adamantyl)-4-hydroxy-5-chloro-phenyl]benzylidene-2,4-thiazolidinedione], for which the melting point lay in the range of 323 to 328 °C.

Compound `COc1ccc(-c2ccc3cc(CC4SC(=O)NC4=O)ccc3c2)cc1C12CC3CC(CC(C3)C1)C2` (stereo not shown) [Compound 9, 6-[3-(1-Adamantyl)-4-methoxyphenyl]-naphthalen-2-yl-methyl-2,4-thiazolidinedione] gave a melting point of 251 to 253 °C.

With `O=C1NC(=O)/C(=C/c2ccc(-c3cc([N+](=O)[O-])c(O)c(C45CC6CC(CC(C6)C4)C5)c3)nc2)S1` [Compound 53], the melting point lay in the range of 291 to 293 °C.

`COc1ccc(-c2ccc3cc(C4SC(=O)NC4=O)ccc3c2)cc1C12CC3CC(CC(C3)C1)C2` (stereo not shown) [Compound 23, 5-[6-(3-[1-Adamantyl]-4-methoxyphenyl)-naphthalen-2-yl]-2,4-thiazolidinedione] displayed a melting point of 205 to 207 °C.

`Cc1cc(O)c(C23CC4CC(CC(C4)C2)C3)cc1-c1ccc(/C=C2\SC(=O)NC2=O)cc1` [Compound 36, 4-[3-(1-Adamantyl)-4-hydroxy-6-methyl-phenyl]benzylidene-2,4-thiazolidinedione] gave a melting point of 275 to 280 °C.

The compound `O=C1NC(=O)/C(=C/c2ccc(-c3ccc(O)c(C45CC6CC(CC(C6)C4)C5)c3)nc2)S1` [Compound 33] yielded a melting point of 315 to 318 °C.

Turning to `Cc1cc(/C=C2\SC(=O)NC2=O)ccc1-c1ccc(O)c(C23CC4CC(CC(C4)C2)C3)c1` [Compound 48, 4-[3-(1-Adamantyl)-4-hydroxy-phenyl]-5-methylbenzylidene-2,4-thiazolidinedione], the melting point was > 305 °C (dec.).

As to `C/C(=C1\SC(=O)NC1=O)c1ccc(-c2ccc(O)c(C34CC5CC(CC(C5)C3)C4)c2)nc1` [Compound 55, (E)-{1-[6-(3-Adamantan-1-yl-4-hydroxy-phenyl)-pyridin-3-yl]-ethylidene}-thiazolidine-2,4-dione], the melting point lay in the range of 224 to 225 °C.

In turn, `O=C1NC(=O)/C(=C/c2ccc(-c3cc(Cl)c(O)c(C45CC6CC(CC(C6)C4)C5)c3)nc2)S1` [Compound 43] came in with a melting point of 339 to 342 °C.

For the compound `COc1ccccc1-c1cc(-c2ccc(/C=C3\SC(=O)NC3=O)cc2)cc2c1OCO2` [Compound 4, 4-[3-(2-Methoxyphenyl)-4,5-methylenedioxyphenyl]-benzylidene-2,4-thiazolidinedione], the melting point is 227 to 228 °C (dec.).

On to `CC1(c2cc(-c3ccc(/C=C4\SC(=O)NC4=O)cn3)ccc2O)CCCCC1` [Compound 47], for which the melting point was 293 to 295 °C.

`O=C1NC(=O)/C(=C/c2ccc(-c3cc(F)c(O)c(C45CC6CC(CC(C6)C4)C5)c3)cc2)S1` [Compound 34, 4-[3-(1-Adamantyl)-4-hydroxy-5-fluoro-phenyl]benzylidene-2,4-thiazolidinedione] yielded a melting point of 305 to 308 °C.

The compound `O=C1NC(=O)/C(=C/c2ccc(-c3ccc(O)c(C45CC6CC(CC(C6)C4)C5)c3)c(OC(F)(F)F)c2)S1` [Compound 46, 4-[3-(1-Adamantyl)-4-hydroxy-phenyl]-5-triflouromethoxybenzylidene-2,4-thiazolidinedione] gave a melting point of 238 to 240 °C.

The compound `C/C(=C1/SC(=O)NC1=O)c1ccc(-c2ccc(O)c(C34CC5CC(CC(C5)C3)C4)c2)nc1` [Compound 54, (Z)-{1-[6-(3-Adamantan-1-yl-4-hydroxy-phenyl)-pyridin-3-yl]-ethylidene}-thiazolidine-2,4-dione] returned a melting point of 181 to 182 °C.

`O=C1NC(=O)/C(=C/c2ccc(-c3ccc(O)c(C45CC6CC(CC(C6)C4)C5)c3)c(O)c2)S1` [Compound 35, 4-[3-(1-Adamantyl)-4-hydroxy-phenyl]-5-hydroxybenzylidene-2,4-thiazolidinedione]: the melting point fell in the range of 224 to 226 °C.

`O=C1NC(=O)/C(=C/c2ccc(-c3ccc(O)c(C45CC6CC(CC(C6)C4)C5)c3)cc2F)S1` [Compound 42, 4-[3-(1-Adamantyl)-4-hydroxy-phenyl]-6-fluorobenzylidene-2,4-thiazolidinedione]: the melting point is 307 to 309 °C.

Compound `COc1cc(-c2ccc(/C=C3\SC(=O)NC3=O)cn2)cc(C23CC4CC(CC(C4)C2)C3)c1O` [Compound 44] yielded a melting point of 211 to 216 °C.

As for `O=C1NC(=O)C(Cc2ccc3cc(-c4ccc(O)c(C56CC7CC(CC(C7)C5)C6)c4)ccc3c2)S1` (stereo not shown) [Compound 16, 6-[3-(1-Adamantyl)-4-hydroxyphenyl]-naphthalen-2-yl-methyl-2,4-thiazolidinedione], the melting point is 270.5 to 272 °C.

`O=C1NC(=O)/C(=C/c2ccc(-c3ccc(O)c(C45CC6CC(CC(C6)C4)C5)c3)c(F)c2)S1` [Compound 41, 4-[3-(1-Adamantyl)-4-hydroxy-phenyl]-5-fluorobenzylidene-2,4-thiazolidinedione]: the melting point was in the range of 270 to 274 °C.
